From ChEMBL document CHEMBL1201861, “Genomics of Drug Sensitity in Cancer screening data, Wellcome Trust Sanger Institute”

Columns and labels:
Experiment in all cases: cells
Type in all cases: functional, cell-based, Homo sapiens
[1] = system: COLO-800; conditions: Homo sapiens, COLO-800;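 note: growth inhibition of COLO-800 cells, read out with a cell viability assay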
Description: SANGER: Inhibition of human COLO-800 cell growth in a cell viability assay.

[2] = system: CP66-MEL; conditions: Homo sapiens, CP66-MEL;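 note: growth inhibition of CP66-MEL cells determined in a cell viability assay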
Description: SANGER: Inhibition of human CP66-MEL cell growth in a cell viability assay.

[3] = system: D283 Med; conditions: Homo sapiens, D283 Med
Description: SANGER: Inhibition of human D-283MED cell growth in a cell viability assay.

[4] = system: D-502MG; conditions: Homo sapiens, D-502MG
Description: SANGER: Inhibition of human D-502MG cell growth in a cell viability assay.

[5] = system: DMS-79; conditions: Homo sapiens, DMS-79;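 note: growth inhibition measured with a cell viability assay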
Description: SANGER: Inhibition of human DMS-79 cell growth in a cell viability assay.

[6] = system: EC-GI-10; conditions: Homo sapiens, EC-GI-10
Description: SANGER: Inhibition of human EC-GI-10 cell growth in a cell viability assay.

[7] = system: ES3; conditions: Homo sapiens, ES3;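 note: growth inhibition of ES3 cells, read out with a cell viability assay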
Description: SANGER: Inhibition of human ES3 cell growth in a cell viability assay.

[8] = system: ES8; conditions: Homo sapiens, ES8;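 note: growth inhibition of human ES8 cells, read out with a cell viability assay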
Description: SANGER: Inhibition of human ES8 cell growth in a cell viability assay.

[9] = system: EW-18; conditions: Homo sapiens, EW-18;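 note: growth inhibition of EW-18 cells, read out by a cell viability assay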
Description: SANGER: Inhibition of human EW-18 cell growth in a cell viability assay.

[10] = system: EW-3; conditions: Homo sapiens, EW-3;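 note: cell viability assay read-out, IC50 reflects inhibition of growth of the EW-3 cells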
Description: SANGER: Inhibition of human EW-3 cell growth in a cell viability assay.

[11] = system: GT3TKB; conditions: Homo sapiens, GT3TKB;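 note: growth inhibition of the cell line, read out with a cell viability assay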
Description: SANGER: Inhibition of human GT3TKB cell growth in a cell viability assay.

[12] = system: HCC 2998; conditions: Homo sapiens, HCC 2998;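 note: growth inhibition of human HCC2998 cells, measured with a cell viability read-out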
Description: SANGER: Inhibition of human HCC2998 cell growth in a cell viability assay.

[13] = system: HDLM-2; conditions: Homo sapiens, HDLM-2;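 note: cell viability assay measuring suppression of HDLM-2 proliferation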
Description: SANGER: Inhibition of human HDLM-2 cell growth in a cell viability assay.

[14] = system: HOP-62; conditions: Homo sapiens, HOP-62;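 note: cell growth inhibition determined with a viability assay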
Description: SANGER: Inhibition of human HOP-62 cell growth in a cell viability assay.

[15] = system: HT; conditions: Homo sapiens, HT
Description: SANGER: Inhibition of human HT cell growth in a cell viability assay.

[16] = system: IST-MEL1; conditions: Homo sapiens, IST-MEL1;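 note: growth inhibition of the cell line, read out with a cell viability assay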
Description: SANGER: Inhibition of human IST-MEL1 cell growth in a cell viability assay.

[17] = system: IST-MES1; conditions: Homo sapiens, IST-MES1;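 note: growth inhibition of IST-MES1 cells, measured with a cell viability assay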
Description: SANGER: Inhibition of human IST-MES1 cell growth in a cell viability assay.

[18] = system: JVM-3; conditions: Homo sapiens, JVM-3;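 note: growth inhibition of human JVM-3 cells, read out with a cell viability assay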
Description: SANGER: Inhibition of human JVM-3 cell growth in a cell viability assay.

[19] = system: KARPAS-299; conditions: Homo sapiens, KARPAS-299
Description: SANGER: Inhibition of human KARPAS-299 cell growth in a cell viability assay.

[20] = system: KLE; conditions: Homo sapiens, KLE;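 note: growth inhibition of human KLE cells, read out with a cell viability assay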
Description: SANGER: Inhibition of human KLE cell growth in a cell viability assay.

[21] = system: KM-H2; conditions: Homo sapiens, KM-H2;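 note: growth inhibition of KM-H2 cells, read out by a cell viability assay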
Description: SANGER: Inhibition of human KM-H2 cell growth in a cell viability assay.

[22] = system: KMOE-2; conditions: Homo sapiens, KMOE-2;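 note: growth inhibition of human KMOE-2 cells, read out with a cell viability assay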
Description: SANGER: Inhibition of human KMOE-2 cell growth in a cell viability assay.

[23] = system: KNS-81-FD; conditions: Homo sapiens, KNS-81-FD;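 note: growth inhibition of KNS-81-FD cells, read out with a cell viability assay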
Description: SANGER: Inhibition of human KNS-81-FD cell growth in a cell viability assay.

[24] = system: KS-1; conditions: Homo sapiens, KS-1;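 note: growth inhibition of KS-1 cells, read out with a cell viability assay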
Description: SANGER: Inhibition of human KS-1 cell growth in a cell viability assay.

[25] = system: LB1047-RCC; conditions: Homo sapiens, LB1047-RCC;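 note: inhibition of cell growth, determined with a cell viability assay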
Description: SANGER: Inhibition of human LB1047-RCC cell growth in a cell viability assay.

[26] = system: LB373-MEL-D; conditions: Homo sapiens, LB373-MEL-D;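 note: growth inhibition of the cell line, read out in a cell viability assay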
Description: SANGER: Inhibition of human LB373-MEL-D cell growth in a cell viability assay.

[27] = system: LC-2-ad; conditions: Homo sapiens, LC-2-ad;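 note: growth inhibition of human LC-2-ad cells, read out with a cell viability assay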
Description: SANGER: Inhibition of human LC-2-ad cell growth in a cell viability assay.

[28] = system: LS-513; conditions: Homo sapiens, LS-513
Description: SANGER: Inhibition of human LS-513 cell growth in a cell viability assay.

[29] = system: MHH-NB-11; conditions: Homo sapiens, MHH-NB-11;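 note: growth inhibition of human MHH-NB-11 cells, read out by a cell viability assay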
Description: SANGER: Inhibition of human MHH-NB-11 cell growth in a cell viability assay.

[30] = system: MMAC-SF; conditions: Homo sapiens, MMAC-SF;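 note: growth inhibition of human MMAC-SF cells, read out with a cell viability assay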
Description: SANGER: Inhibition of human MMAC-SF cell growth in a cell viability assay.

[31] = system: NB10; conditions: Homo sapiens, NB10;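 note: growth inhibition of NB10 cells, read out by a cell viability assay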
Description: SANGER: Inhibition of human NB10 cell growth in a cell viability assay.

[32] = system: NCI-H1092; conditions: Homo sapiens, NCI-H1092;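 note: cell growth inhibition measured with a cell viability assay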
Description: SANGER: Inhibition of human NCI-H1092 cell growth in a cell viability assay.

[33] = system: NCI-H1155; conditions: Homo sapiens, NCI-H1155;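 note: cell growth inhibition measured by a viability assay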
Description: SANGER: Inhibition of human NCI-H1155 cell growth in a cell viability assay.

[34] = system: NCI-H1648; conditions: Homo sapiens, NCI-H1648;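 note: cell viability assay measuring inhibition of NCI-H1648 cell growth, from the Sanger screening data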
Description: SANGER: Inhibition of human NCI-H1648 cell growth in a cell viability assay.

[35] = system: NCI-H1770; conditions: Homo sapiens, NCI-H1770;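 note: growth inhibition of NCI-H1770 cells determined with a viability readout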
Description: SANGER: Inhibition of human NCI-H1770 cell growth in a cell viability assay.

[36] = system: NCI-H69; conditions: Homo sapiens, NCI-H69;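 note: growth inhibition of the cell line, read out with a cell viability assay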
Description: SANGER: Inhibition of human NCI-H69 cell growth in a cell viability assay.

[37] = system: NCI-H747; conditions: Homo sapiens, NCI-H747;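 note: growth inhibition of human NCI-H747 cells, read out by a cell viability assay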
Description: SANGER: Inhibition of human NCI-H747 cell growth in a cell viability assay.

[38] = system: NEC8; conditions: Homo sapiens, NEC8;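 note: growth inhibition of human NEC8 cells, read out by a cell viability assay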
Description: SANGER: Inhibition of human NEC8 cell growth in a cell viability assay.

[39] = system: OMC-1; conditions: Homo sapiens, OMC-1;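 note: growth inhibition of the OMC-1 cell line, measured by a cell viability assay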
Description: SANGER: Inhibition of human OMC-1 cell growth in a cell viability assay.

[40] = system: RKO; conditions: Homo sapiens, RKO;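 note: growth inhibition of human RKO cells, read out with a cell viability assay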
Description: SANGER: Inhibition of human RKO cell growth in a cell viability assay.

[41] = system: RS4-11; conditions: Homo sapiens, RS4-11;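 note: growth inhibition of RS4-11 cells, read out by a cell viability assay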
Description: SANGER: Inhibition of human RS4-11 cell growth in a cell viability assay.

[42] = system: SK-LMS-1; conditions: Homo sapiens, SK-LMS-1;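 note: growth inhibition of human SK-LMS-1 cells, read out with a cell viability assay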
Description: SANGER: Inhibition of human SK-LMS-1 cell growth in a cell viability assay.

[43] = system: SK-PN-DW; conditions: Homo sapiens, SK-PN-DW;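 note: growth inhibition measured with a viability assay on these cells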
Description: SANGER: Inhibition of human SK-PN-DW cell growth in a cell viability assay.

[44] = system: ACN; conditions: Homo sapiens, ACN;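 note: growth inhibition of the human ACN cell line, read out via cell viability testing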
Description: SANGER: Inhibition of human ACN cell growth in a cell viability assay.

[45] = system: ATN-1; conditions: Homo sapiens, ATN-1;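 note: growth inhibition of human ATN-1 cells, read out with a cell viability assay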
Description: SANGER: Inhibition of human ATN-1 cell growth in a cell viability assay.

[46] = system: BB65-RCC; conditions: Homo sapiens, BB65-RCC;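 note: growth inhibition of the cell line, measured with a cell viability assay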
Description: SANGER: Inhibition of human BB65-RCC cell growth in a cell viability assay.

[47] = system: BE-13; conditions: Homo sapiens, BE-13;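 note: growth inhibition of human BE-13 cells, measured with a cell viability assay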
Description: SANGER: Inhibition of human BE-13 cell growth in a cell viability assay.

[48] = system: TK-10; conditions: Homo sapiens, TK-10;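 note: growth inhibition of TK-10 cells, read out in a cell viability assay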
Description: SANGER: Inhibition of human TK10 cell growth in a cell viability assay.

[49] = system: CCRF-CEM; conditions: Homo sapiens, CCRF-CEM;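 note: inhibition of CCRF-CEM cell growth, measured by a cell viability assay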
Description: SANGER: Inhibition of human CCRF-CEM cell growth in a cell viability assay.

In the case of `Cc1cc([N+](=O)[O-])ccc1NS(=O)(=O)c1cc(Cl)ccc1Cl`, the IC50 [1] is reported as 8910 nM, the IC50 [2] is reported as 268 nM and the IC50 [3] is reported as 3960 nM. For the same compound, the IC50 [4] was 607 nM, the IC50 [5] was greater than 32000 nM and the IC50 [6] was 11.3 µM. For the same compound, the IC50 [7] was 7720 nM, the IC50 [8] was 8950 nM and the IC50 [9] was 9580 nM. The IC50 [10] was greater than 32000 nM, the IC50 [11] was 2900 nM and the IC50 [12] was 3150 nM. The IC50 [13] was 6710 nM, the IC50 [14] was 5.08 µM and the IC50 [15] was 2750 nM. For the same compound, the IC50 [16] was 11200 nM, the IC50 [17] was 4850 nM and the IC50 [18] was greater than 32000 nM. For the same compound, the IC50 [19] was greater than 32000 nM, the IC50 [20] was 6.59 µM and the IC50 [21] was 14900 nM. For the same compound, the IC50 [22] was 3840 nM, the IC50 [23] was 21200 nM and the IC50 [24] was 12600 nM. For the same compound, the IC50 [25] was 6740 nM, the IC50 [26] was 2860 nM and the IC50 [27] was 4630 nM. It also gave an IC50 [28] of 14.5 µM, an IC50 [29] of 20700 nM and an IC50 [30] of 3920 nM. For the same compound, the IC50 [31] was 16.3 µM, the IC50 [32] was greater than 32000 nM and the IC50 [33] was greater than 32000 nM. It also gave an IC50 [34] of 2040 nM, an IC50 [35] of 17100 nM and an IC50 [36] greater than 32000 nM. The IC50 [37] was 7.48 µM, the IC50 [38] was 21700 nM and the IC50 [39] was 8.57 µM. For the same compound, the IC50 [40] was 2210 nM, the IC50 [41] was 13200 nM and the IC50 [42] was 3100 nM. It also gave an IC50 [43] of 11.6 µM, an IC50 [44] of 3710 nM and an IC50 [45] greater than 32000 nM. The IC50 [46] was 6370 nM, the IC50 [47] was 7530 nM and the IC50 [48] was 10.2 µM. It also gave an IC50 [49] of 7880 nM.
In the case of `N#Cc1c(O)c2c(-c3ccc(-c4ccccc4O)cc3)csc2[nH]c1=O`, the IC50 [1] is reported as greater than 1020 nM, the IC50 [2] is reported as greater than 1020 nM and the IC50 [3] is reported as 386 nM. The IC50 [4] was greater than 1020 nM, the IC50 [5] was greater than 1020 nM and the IC50 [6] was greater than 1.02 µM. For the same compound, the IC50 [7] was greater than 1020 nM, the IC50 [8] was greater than 1020 nM and the IC50 [9] was 451 nM. For the same compound, the IC50 [10] was greater than 1020 nM, the IC50 [11] was greater than 1020 nM and the IC50 [12] was greater than 1020 nM. It also gave an IC50 [13] of 136 nM, an IC50 [14] greater than 1.02 µM and an IC50 [15] of 335 nM. For the same compound, the IC50 [16] was greater than 1020 nM, the IC50 [17] was greater than 1020 nM and the IC50 [18] was greater than 1020 nM. For the same compound, the IC50 [19] was 948 nM, the IC50 [20] was greater than 1.02 µM and the IC50 [21] was 424 nM. The IC50 [22] was 397 nM, the IC50 [23] was greater than 1020 nM and the IC50 [24] was greater than 1020 nM. The IC50 [25] was greater than 1020 nM, the IC50 [26] was greater than 1020 nM and the IC50 [27] was greater than 1020 nM. For the same compound, the IC50 [28] was greater than 1.02 µM, the IC50 [29] was 323 nM and the IC50 [30] was greater than 1020 nM. For the same compound, the IC50 [31] was greater than 1.02 µM, the IC50 [32] was 541 nM and the IC50 [33] was greater than 1020 nM. It also gave an IC50 [34] greater than 1020 nM, an IC50 [35] of 109 nM and an IC50 [36] greater than 1020 nM. For the same compound, the IC50 [37] was greater than 1.02 µM, the IC50 [38] was 480 nM and the IC50 [39] was greater than 1.02 µM. It also gave an IC50 [40] greater than 1020 nM, an IC50 [41] of 85.7 nM and an IC50 [42] greater than 1020 nM. For the same compound, the IC50 [43] was greater than 1.02 µM, the IC50 [44] was greater than 1020 nM and the IC50 [45] was 499 nM. The IC50 [46] was greater than 1020 nM, the IC50 [47] was greater than 1020 nM and the IC50 [48] was greater than 1.02 µM. For the same compound, the IC50 [49] was 146 nM.
`CO[C@H]1C[C@@H]2CC[C@@H](C)[C@@](O)(O2)C(=O)C(=O)N2CCCC[C@H]2C(=O)O[C@H]([C@H](C)C[C@@H]2CC[C@@H](OC(=O)C(C)(CO)CO)[C@H](OC)C2)CC(=O)[C@H](C)/C=C(\C)[C@@H](O)[C@@H](OC)C(=O)[C@H](C)C[C@H](C)/C=C/C=C/C=C/1C` [TEMSIROLIMUS] gave an IC50 [1] of 129 nM, an IC50 [2] greater than 200 nM and an IC50 [3] greater than 200 nM. It also gave an IC50 [4] greater than 200 nM, an IC50 [5] greater than 200 nM and an IC50 [6] greater than 0.2 µM. It also gave an IC50 [7] of 85.1 nM, an IC50 [8] of 5.27 nM and an IC50 [9] greater than 200 nM. For the same compound, the IC50 [10] was 49.2 nM, the IC50 [11] was 90.6 nM and the IC50 [12] was greater than 200 nM. For the same compound, the IC50 [13] was greater than 200 nM, the IC50 [14] was greater than 0.2 µM and the IC50 [15] was 27.6 nM. It also gave an IC50 [16] of 123 nM, an IC50 [17] greater than 200 nM and an IC50 [18] of 3.95 nM. For the same compound, the IC50 [19] was greater than 200 nM, the IC50 [20] was greater than 0.2 µM and the IC50 [21] was greater than 200 nM. For the same compound, the IC50 [22] was greater than 200 nM, the IC50 [23] was 138 nM and the IC50 [24] was 63.5 nM. The IC50 [25] was 63.1 nM, the IC50 [26] was greater than 200 nM and the IC50 [27] was greater than 200 nM. For the same compound, the IC50 [28] was greater than 0.2 µM, the IC50 [29] was greater than 200 nM and the IC50 [30] was greater than 200 nM. The IC50 [31] was greater than 0.2 µM, the IC50 [32] was greater than 200 nM and the IC50 [33] was 63.6 nM. For the same compound, the IC50 [34] was 182 nM, the IC50 [35] was greater than 200 nM and the IC50 [36] was greater than 200 nM. The IC50 [37] was greater than 0.2 µM, the IC50 [38] was greater than 200 nM and the IC50 [39] was greater than 0.2 µM. The IC50 [40] was 135 nM, the IC50 [41] was 8.45 nM and the IC50 [42] was greater than 200 nM. For the same compound, the IC50 [43] was greater than 0.2 µM, the IC50 [44] was 13 nM and the IC50 [45] was greater than 200 nM. It also gave an IC50 [46] of 7 nM, an IC50 [47] of 4.91 nM and an IC50 [48] greater than 0.2 µM. For the same compound, the IC50 [49] was greater than 200 nM.
